Target: TGF-beta-activated kinase 1 (MAP3K7)
Test: Inhibition of TAK (unknown origin)

Structure (SMILES) | IC50 [µM]
COC(=O)Nc1cc(-c2cnc(OC[C@@](C)(N)CC(C)C)c(C#N)c2)ccn1 | 0.26
COC(=O)Nc1cc(-c2cnc(OC[C@@](C)(N)CC(C)C)c(Cl)c2)ccn1 | 0.12

Source: BindingDB's records for PubMed 35261239 (Bristol-Myers Squibb Company, 2022)
